Measured values published in patent US20250154141A1 (University of Florida Research Foundation, Incorporated, priority 2021, published 2025).
Read-outs that look alike come from different tables or passages of the source.

Key:
RS4; 11 = experiment: Cell viability assay (MTS) in RS4; 11 cells; format: cell-based; conditions: Homo sapiens, RS4-11
Description: (§1) Acute lymphoblastic leukemia cells (MOLT-4 and RS4; 11) were incubated with increasing concentrations of Bcl-xL degraders for 48 h. Cell viability was measured by tetrazolium-based MTS assay.

MOLT-4 = experiment: Cell viability assay (MTS) in MOLT-4 cells; format: cell-based; conditions: Homo sapiens, MOLT-4
Description: as §1

[1] = Table 2, 48 hr, MTS, read-out: Anti-Cancer Activity IC50 (48 hr) RS4, 11
[2] = Table 2, 48 hr, MTS, read-out: Anti-Cancer Activity IC50 (48 hr) MOLT-4
[3] = Table 2A, 48 hr, MTS, read-out: Anti-Cancer Activity IC50 (48 hr) RS4, 11
[4] = Table 2A, 48 hr, MTS, read-out: Anti-Cancer Activity IC50 (48 hr) MOLT-4

Row | Compound | IC50 (RS4; 11; [1]) | IC50 (MOLT-4; [2]) | IC50 (RS4; 11; Table 5, 48 h, read-out: RS4 48 h IC50) | IC50 (MOLT-4; Table 5, 48 h, read-out: MOLT-4 48 h IC50) | IC50 (RS4; 11; [3]) | IC50 (MOLT-4; [4])
1 | Cc1ncsc1-c1ccc([C@H](C)NC(=O)[C@@H]2C[C@@H](O)CN2C(=O)[C@@H](NC(=O)CCCCCCC(=O)N2CCN(C[C@]3(C)CCC(c4ccc(Cl)cc4)=C(CN4CCN(c5ccc(C(=O)NS(=O)(=O)c6ccc(N[C@H](CCN7CCCOCC7)CSc7ccccc7)c(S(=O)(=O)C(F)(F)F)c6)cc5)CC4)C3)C[C@@H]2C)C(C)(C)C)cc1 [Compound 82] | 20 to 100 nM | < 20 nM | – | – | – | –
2 | Cc1ncsc1-c1ccc([C@H](C)NC(=O)[C@@H]2C[C@@H](O)CN2C(=O)[C@@H](NC(=O)CCCCCCC(=O)N2CCN(C[C@]3(C)CCC(c4ccc(Cl)cc4)=C(CN4CCN(c5ccc(C(=O)NS(=O)(=O)c6ccc(N[C@H](CCN7CCOCC78CC8)CSc7ccccc7)c(S(=O)(=O)C(F)(F)F)c6)cc5)CC4)C3)CC2)C(C)(C)C)cc1 [Compound 92] | 20 to 100 nM | 500 to 10000 nM | – | – | – | –
3 | Cc1ncsc1-c1ccc([C@H](C)NC(=O)[C@@H]2C[C@@H](O)CN2C(=O)[C@@H](NC(=O)CCCCCCC(=O)N2CCN(CC3(C)CCC(c4ccc(Cl)cc4)=C(CN4CCN(c5ccc(C(=O)NS(=O)(=O)c6ccc(N[C@H](CCN7C[C@H]8C[C@@H]7CO8)CSc7ccccc7)c([N+](=O)[O-])c6)cc5)CC4)C3)CC2)C(C)(C)C)cc1 (stereo partly drawn) [Compound 52, (2S,4R)-1-((2S)-2-(8-(4-((6-((4-(4-(((4-(((R)-4-((1R,4R)-2-oxa-5-azabicyclo[2.2.1]heptan-5-yl)-1-(phenylthio)butan-2-yl)amino)-3-nitrophenyl)sulfonyl)carbamoyl)phenyl)piperazin-1-yl)methyl)-4′-chloro-4-methyl-2,3,4,5-tetrahydro-[1,1′-biphenyl]-4-yl)methyl)piperazin-1-yl)-8-oxooctanamido)-3,3-dimethylbutanoyl)-4-hydroxy-N—((S)-1-(4-(4-methylthiazol-5-yl)phenyl)ethyl)pyrrolidine-2-carboxamide] | < 20 nM | < 20 nM | 2.8 nM | 15.2 nM | – | –
4 | Cc1ncsc1-c1ccc([C@H](C)NC(=O)[C@@H]2C[C@@H](O)CN2C(=O)[C@@H](NC(=O)CCCCCCC(=O)N2C(C)CN(C[C@]3(C)CCC(c4ccc(Cl)cc4)=C(CN4CCN(c5ccc(C(=O)NS(=O)(=O)c6ccc(N[C@H](CCN7CCCOCC7)CSc7ccccc7)c(S(=O)(=O)C(F)(F)F)c6)cc5)CC4)C3)CC2C)C(C)(C)C)cc1 (some centres unmarked) [compound 83] | 100 to 500 nM | 20 to 100 nM | – | – | – | –
5 | Cc1ncsc1-c1ccc([C@H](C)NC(=O)[C@@H]2C[C@@H](O)CN2C(=O)[C@@H](NC(=O)CC(=O)N2CCN(CC3CCN(CC4(C)CCC(c5ccc(Cl)cc5)=C(CN5CCN(c6ccc(C(=O)NS(=O)(=O)c7ccc(N[C@H](CCN8CCOCC8)CSc8ccccc8)c(S(=O)(=O)C(F)(F)F)c7)cc6)CC5)C4)CC3)CC2)C(C)(C)C)cc1 (some centres unmarked) [Compound 17] | 20 to 100 nM | 100 to 500 nM | – | – | – | –
6 | Cc1ncsc1-c1ccc([C@H](C)NC(=O)[C@@H]2C[C@@H](O)CN2C(=O)[C@@H](NC(=O)CCCCCCC(=O)N2CCC(C3CCN(CC4(C)CCC(c5ccc(Cl)cc5)=C(CN5CCN(c6ccc(C(=O)NS(=O)(=O)c7ccc(N[C@H](CCN8C[C@H]9C[C@@H]8CO9)CSc8ccccc8)c(S(=O)(=O)C(F)(F)F)c7)cc6)CC5)C4)CC3)CC2)C(C)(C)C)cc1 (some centres unmarked) [Compound 70] | < 20 nM | < 20 nM | – | – | – | –
7 | CCN(CCO)CC[C@H](CSc1ccccc1)Nc1ccc(S(=O)(=O)NC(=O)c2ccc(N3CCN(CC4=C(c5ccc(Cl)cc5)CCC(C)(CN5CCN(C(=O)CCCCCCC(=O)N[C@H](C(=O)N6C[C@H](O)C[C@H]6C(=O)N[C@@H](C)c6ccc(-c7scnc7C)cc6)C(C)(C)C)CC5)C4)CC3)cc2)cc1S(=O)(=O)C(F)(F)F (stereo partly drawn) [Compound 63, (2S,4R)-1-((2S)-2-(8-(4-((4′-chloro-6-((4-(4-(((4-(((R)-4-(ethyl(2-hydroxyethyl)amino)-1-(phenylthio)butan-2-yl)amino)-3-((trifluoromethyl)sulfonyl)phenyl)sulfonyl)carbamoyl)phenyl)piperazin-1-yl)methyl)-4-methyl-2,3,4,5-tetrahydro-[1,1′-biphenyl]-4-yl)methyl)piperazin-1-yl)-8-oxooctanamido)-3,3-dimethylbutanoyl)-4-hydroxy-N—((S)-1-(4-(4-methylthiazol-5-yl)phenyl)ethyl)pyrrolidine-2-carboxamide] | < 20 nM | 20 to 100 nM | – | – | – | –
8 | Cc1ncsc1-c1ccc([C@H](C)NC(=O)[C@@H]2C[C@@H](O)CN2C(=O)[C@@H](NC(=O)CN(C)CCC(=O)N2CCC(C3CCN(C[C@]4(C)CCC(c5ccc(Cl)cc5)=C(CN5CCN(c6ccc(C(=O)NS(=O)(=O)c7ccc(N[C@H](CCN8CCCOCC8)CSc8ccccc8)c(S(=O)(=O)C(F)(F)F)c7)cc6)CC5)C4)CC3)CC2)C(C)(C)C)cc1 [Compound 117] | – | – | – | – | < 20 nM | 20 to 100 nM
9 | Cc1ncsc1-c1ccc([C@H](C)NC(=O)[C@@H]2C[C@@H](O)CN2C(=O)[C@@H](NC(=O)CCCCCCC(=O)N2CCN(C[C@]3(C)CCC(c4ccc(Cl)cc4)=C(CN4CCN(c5ccc(C(=O)NS(=O)(=O)c6ccc(N[C@H](CCN7CCOC[C@H]7C)CSc7ccccc7)c(S(=O)(=O)C(F)(F)F)c6)cc5)CC4)C3)CC2)C(C)(C)C)cc1 [Compound 89, (2S,4R)-1-((S)-2-(8-(4-(((R)-4′-chloro-4-methyl-6-((4-(4-(((4-(((R)-4-((R)-3-methylmorpholino)-1-(phenylthio)butan-2-yl)amino)-3-((trifluoromethyl)sulfonyl)phenyl)sulfonyl)carbamoyl)phenyl)piperazin-1-yl)methyl)-2,3,4,5-tetrahydro-[1,1′-biphenyl]-4-yl)methyl)piperazin-1-yl)-8-oxooctanamido)-3,3-dimethylbutanoyl)-4-hydroxy-N—((S)-1-(4-(4-methylthiazol-5-yl)phenyl)ethyl)pyrrolidine-2-carboxamide] | < 20 nM | 20 to 100 nM | – | – | – | –
10 | Cc1ncsc1-c1ccc([C@H](C)NC(=O)[C@@H]2C[C@@H](O)CN2C(=O)[C@@H](NC(=O)CCCCCCC(=O)N2CCN(C[C@]3(C)CCC(c4ccc(Cl)cc4)=C(CN4CCN(c5ccc(C(=O)NS(=O)(=O)c6ccc(N[C@H](CCN7CCCCCC7)CSc7ccccc7)c([N+](=O)[O-])c6)cc5)CC4)C3)CC2)C(C)(C)C)cc1 [Compound 56] | < 20 nM | < 20 nM | – | – | – | –
11 | Cc1ncsc1-c1ccc([C@H](C)NC(=O)[C@@H]2C[C@@H](O)CN2C(=O)[C@@H](NC(=O)CCCCCCC(=O)N2CCN(C[C@]3(C)CCC(c4ccc(Cl)cc4)=C(CN4CCN(c5ccc(C(=O)NS(=O)(=O)c6ccc(N[C@H](CCN(C)CCO)CSc7ccccc7)c([N+](=O)[O-])c6)cc5)CC4)C3)CC2)C(C)(C)C)cc1 [Compound 42, (2S,4R)-1-((S)-2-(8-(4-(((R)-4′-chloro-6-((4-(4-(((4-(((R)-4-((2-hydroxyethyl)(methyl)amino)-1-(phenylthio)butan-2-yl)amino)-3-nitrophenyl)sulfonyl)carbamoyl)phenyl)piperazin-1-yl)methyl)-4-methyl-2,3,4,5-tetrahydro-[1,1′-biphenyl]-4-yl)methyl)piperazin-1-yl)-8-oxooctanamido)-3,3-dimethylbutanoyl)-4-hydroxy-N—((S)-1-(4-(4-methylthiazol-5-yl)phenyl)ethyl)pyrrolidine-2-carboxamide] | < 20 nM | 20 to 100 nM | – | – | – | –
12 | Cc1ncsc1-c1ccc([C@H](C)NC(=O)[C@@H]2C[C@@H](O)CN2C(=O)[C@@H](NC(=O)CCCCCCC(=O)N2CCN(C[C@]3(C)CCC(c4ccc(Cl)cc4)=C(CN4CCN(c5ccc(C(=O)NS(=O)(=O)c6ccc(N[C@H](CCN7CC8CCC7C8)CSc7ccccc7)c([N+](=O)[O-])c6)cc5)CC4)C3)CC2)C(C)(C)C)cc1 (stereo partly drawn) [Compound 53, (2S,4R)-1-((2S)-2-(8-(4-(((4R)-6-((4-(4-(((4-(((2R)-4-(2-azabicyclo[2.2.1]heptan-2-yl)-1-(phenylthio)butan-2-yl)amino)-3-nitrophenyl)sulfonyl)carbamoyl)phenyl)piperazin-1-yl)methyl)-4′-chloro-4-methyl-2,3,4,5-tetrahydro-[1,1′-biphenyl]-4-yl)methyl)piperazin-1-yl)-8-oxooctanamido)-3,3-dimethylbutanoyl)-4-hydroxy-N—((S)-1-(4-(4-methylthiazol-5-yl)phenyl)ethyl)pyrrolidine-2-carboxamide] | < 20 nM | 20 to 100 nM | – | – | – | –
13 | Cc1ncsc1-c1ccc([C@H](C)NC(=O)[C@@H]2C[C@@H](O)CN2C(=O)[C@@H](NC(=O)CCCCCCC(=O)N2CCN(C[C@]3(C)CCC(c4ccc(Cl)cc4)=C(CN4CCN(c5ccc(C(=O)NS(=O)(=O)c6ccc(N[C@H](CCN7C[C@H]8COC[C@H]8C7)CSc7ccccc7)c(S(=O)(=O)C(F)(F)F)c6)cc5)CC4)C3)CC2)C(C)(C)C)cc1 [Compound 95] | < 20 nM | < 20 nM | – | – | – | –
14 | Cc1ncsc1-c1ccc([C@H](C)NC(=O)[C@@H]2C[C@@H](O)CN2C(=O)[C@@H](NC(=O)CCCCCCC(=O)N2CCN(C[C@]3(C)CCC(c4ccc(Cl)cc4)=C(CN4CCN(c5ccc(C(=O)NS(=O)(=O)c6ccc(N[C@H](CCN7CCc8cccnc8C7)CSc7ccccc7)c(S(=O)(=O)C(F)(F)F)c6)cc5)CC4)C3)CC2)C(C)(C)C)cc1 [Compound 71] | 20 to 100 nM | 100 to 500 nM | – | – | – | –
15 | Cc1ncsc1-c1ccc([C@H](C)NC(=O)[C@@H]2C[C@@H](O)CN2C(=O)[C@@H](NC(=O)CCCCC(=O)N2CCC(C3CCN(C[C@]4(C)CCC(c5ccc(Cl)cc5)=C(CN5CCN(c6ccc(C(=O)NS(=O)(=O)c7ccc(N[C@H](CCN8CCCOCC8)CSc8ccccc8)c(S(=O)(=O)C(F)(F)F)c7)cc6)CC5)C4)CC3)CC2)C(C)(C)C)cc1 [Compound 116] | – | – | – | – | < 20 nM | < 20 nM
